“And” between values parts separate entries of the source, which are not always exact repeats. Equal values may be shown once. Read-outs that look alike come from different tables or passages of the source.
What was measured:
PI3K-α = PI3K-α (Homo sapiens, UniProt P42336); assay: PI3K-alpha fluorescence polarization assay; details: read-out: IC50 PI3Kα
[1] = test system: human breast MDA-MB-361 tumor cell line; assay: In vitro cell culture growth assay (MTS), MDA-MB-361; assay type: cell-based; details: Homo sapiens, MTS cell growth assay, three days after drug treatment, read-out: IC50 MDA-MB-361
PI3K-γ = PI3K-γ (Homo sapiens, UniProt P48736); assay: PI3K-gamma fluorescence polarization assay; details: read-out: IC50 PI3Kγ
[2] = test system: human prostate PC3-mm2 tumor cell line; assay: In vitro cell culture growth assay (MTS), PC3-mm2; assay type: cell-based; details: Homo sapiens, PC3MM2, 72 h, MTS cell growth assay, three days after drug treatment, read-out: IC50 PC3-mm2
Human mTOR (FLAG-TOR) = Human mTOR (FLAG-TOR) (Homo sapiens, UniProt P42345); assay: mTOR kinase assay (DELFIA format, purified enzyme); assay type: biochemical; details: read-out: IC50 mTOR
[3] = MDA-MB-361, 72 h, MDA-MB-361 cells

Human mTOR (FLAG-TOR), sequence (P42345 1360-2549 limits assumed): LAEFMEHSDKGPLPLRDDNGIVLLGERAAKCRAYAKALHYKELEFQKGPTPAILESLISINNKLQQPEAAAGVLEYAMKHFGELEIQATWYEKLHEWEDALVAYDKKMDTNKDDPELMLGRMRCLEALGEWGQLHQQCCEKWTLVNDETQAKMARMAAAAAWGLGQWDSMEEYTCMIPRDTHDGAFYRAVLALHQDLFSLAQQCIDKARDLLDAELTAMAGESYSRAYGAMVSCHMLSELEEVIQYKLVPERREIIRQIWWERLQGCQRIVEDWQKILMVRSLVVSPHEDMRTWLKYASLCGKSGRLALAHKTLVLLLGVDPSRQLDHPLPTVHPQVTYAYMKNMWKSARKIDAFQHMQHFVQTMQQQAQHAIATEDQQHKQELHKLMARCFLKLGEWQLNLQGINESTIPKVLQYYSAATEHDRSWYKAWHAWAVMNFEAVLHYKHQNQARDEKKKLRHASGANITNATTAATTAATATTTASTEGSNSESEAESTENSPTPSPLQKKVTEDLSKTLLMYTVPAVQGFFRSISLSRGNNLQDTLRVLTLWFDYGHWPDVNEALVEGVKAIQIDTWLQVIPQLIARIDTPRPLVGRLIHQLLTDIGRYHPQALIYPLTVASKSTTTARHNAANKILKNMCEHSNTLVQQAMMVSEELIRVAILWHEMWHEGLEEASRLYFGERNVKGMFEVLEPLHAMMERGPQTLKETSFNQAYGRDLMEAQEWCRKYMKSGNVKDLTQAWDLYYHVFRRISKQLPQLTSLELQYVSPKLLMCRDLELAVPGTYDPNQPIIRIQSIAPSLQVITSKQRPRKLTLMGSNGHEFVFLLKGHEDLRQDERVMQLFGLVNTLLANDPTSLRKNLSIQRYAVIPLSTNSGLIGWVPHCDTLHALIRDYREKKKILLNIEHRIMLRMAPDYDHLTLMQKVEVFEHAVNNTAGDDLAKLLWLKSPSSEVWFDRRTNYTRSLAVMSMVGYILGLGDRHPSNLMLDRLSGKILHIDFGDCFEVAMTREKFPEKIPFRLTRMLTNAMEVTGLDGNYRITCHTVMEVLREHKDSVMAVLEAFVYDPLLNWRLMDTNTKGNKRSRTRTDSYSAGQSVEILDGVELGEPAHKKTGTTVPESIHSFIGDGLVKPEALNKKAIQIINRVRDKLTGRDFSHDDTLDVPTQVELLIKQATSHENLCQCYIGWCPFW
PI3K-γ, sequence (P48736 whole entry, species assumed): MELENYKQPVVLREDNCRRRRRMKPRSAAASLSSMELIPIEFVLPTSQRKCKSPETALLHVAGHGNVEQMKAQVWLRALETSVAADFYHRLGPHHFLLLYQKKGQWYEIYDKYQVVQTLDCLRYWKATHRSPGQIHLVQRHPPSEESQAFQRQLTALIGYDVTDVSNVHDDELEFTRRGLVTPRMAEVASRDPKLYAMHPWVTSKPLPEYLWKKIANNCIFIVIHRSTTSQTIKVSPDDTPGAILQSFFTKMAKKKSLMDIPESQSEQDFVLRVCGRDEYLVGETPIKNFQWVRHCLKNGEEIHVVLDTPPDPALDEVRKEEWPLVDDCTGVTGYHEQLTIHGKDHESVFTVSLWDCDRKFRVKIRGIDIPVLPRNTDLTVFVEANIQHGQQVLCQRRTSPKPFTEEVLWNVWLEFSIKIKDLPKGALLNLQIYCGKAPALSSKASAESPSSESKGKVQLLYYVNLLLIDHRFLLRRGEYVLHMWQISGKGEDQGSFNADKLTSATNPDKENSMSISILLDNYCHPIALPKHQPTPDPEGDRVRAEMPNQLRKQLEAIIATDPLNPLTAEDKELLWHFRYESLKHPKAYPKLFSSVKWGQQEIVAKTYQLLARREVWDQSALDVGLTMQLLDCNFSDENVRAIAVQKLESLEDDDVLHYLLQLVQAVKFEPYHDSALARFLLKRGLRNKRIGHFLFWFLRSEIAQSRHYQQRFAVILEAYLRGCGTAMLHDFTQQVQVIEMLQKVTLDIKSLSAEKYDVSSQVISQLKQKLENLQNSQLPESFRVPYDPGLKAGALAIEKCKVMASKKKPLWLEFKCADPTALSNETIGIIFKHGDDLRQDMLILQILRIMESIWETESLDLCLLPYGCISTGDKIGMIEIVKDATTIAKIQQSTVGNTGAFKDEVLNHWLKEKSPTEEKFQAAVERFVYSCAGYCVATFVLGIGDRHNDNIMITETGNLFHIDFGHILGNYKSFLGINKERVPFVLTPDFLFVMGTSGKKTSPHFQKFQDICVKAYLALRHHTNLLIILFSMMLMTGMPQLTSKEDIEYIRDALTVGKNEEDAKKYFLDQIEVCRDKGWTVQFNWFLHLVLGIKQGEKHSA
PI3K-α, sequence (P42336 whole entry, species assumed): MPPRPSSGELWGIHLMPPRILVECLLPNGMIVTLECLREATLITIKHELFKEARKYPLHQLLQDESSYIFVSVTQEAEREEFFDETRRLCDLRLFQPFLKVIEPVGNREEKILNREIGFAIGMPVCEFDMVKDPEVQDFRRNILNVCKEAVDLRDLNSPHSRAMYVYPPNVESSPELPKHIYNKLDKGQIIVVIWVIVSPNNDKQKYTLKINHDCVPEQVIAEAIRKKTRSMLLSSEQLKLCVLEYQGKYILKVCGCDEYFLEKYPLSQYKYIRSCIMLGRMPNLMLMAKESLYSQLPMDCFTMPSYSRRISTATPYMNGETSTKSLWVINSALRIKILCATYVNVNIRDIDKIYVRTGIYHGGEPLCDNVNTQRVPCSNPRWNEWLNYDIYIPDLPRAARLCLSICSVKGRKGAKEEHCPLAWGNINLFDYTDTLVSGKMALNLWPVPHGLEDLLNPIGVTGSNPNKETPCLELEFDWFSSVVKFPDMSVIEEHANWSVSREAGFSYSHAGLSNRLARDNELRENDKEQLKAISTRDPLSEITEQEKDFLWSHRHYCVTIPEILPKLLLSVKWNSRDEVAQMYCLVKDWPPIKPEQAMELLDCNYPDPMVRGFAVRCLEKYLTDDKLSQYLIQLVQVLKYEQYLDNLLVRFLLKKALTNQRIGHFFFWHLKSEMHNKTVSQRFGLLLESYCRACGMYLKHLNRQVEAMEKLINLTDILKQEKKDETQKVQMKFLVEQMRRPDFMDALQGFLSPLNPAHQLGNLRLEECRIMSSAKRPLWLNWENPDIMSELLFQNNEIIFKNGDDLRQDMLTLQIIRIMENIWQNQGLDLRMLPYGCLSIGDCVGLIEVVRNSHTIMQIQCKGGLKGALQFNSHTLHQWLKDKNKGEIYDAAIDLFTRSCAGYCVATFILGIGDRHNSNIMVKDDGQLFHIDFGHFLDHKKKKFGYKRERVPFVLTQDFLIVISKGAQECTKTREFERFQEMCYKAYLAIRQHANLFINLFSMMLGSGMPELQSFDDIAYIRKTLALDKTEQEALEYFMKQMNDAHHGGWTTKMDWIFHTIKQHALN
PI3K-α, sequence (P27986 whole entry partner, species assumed): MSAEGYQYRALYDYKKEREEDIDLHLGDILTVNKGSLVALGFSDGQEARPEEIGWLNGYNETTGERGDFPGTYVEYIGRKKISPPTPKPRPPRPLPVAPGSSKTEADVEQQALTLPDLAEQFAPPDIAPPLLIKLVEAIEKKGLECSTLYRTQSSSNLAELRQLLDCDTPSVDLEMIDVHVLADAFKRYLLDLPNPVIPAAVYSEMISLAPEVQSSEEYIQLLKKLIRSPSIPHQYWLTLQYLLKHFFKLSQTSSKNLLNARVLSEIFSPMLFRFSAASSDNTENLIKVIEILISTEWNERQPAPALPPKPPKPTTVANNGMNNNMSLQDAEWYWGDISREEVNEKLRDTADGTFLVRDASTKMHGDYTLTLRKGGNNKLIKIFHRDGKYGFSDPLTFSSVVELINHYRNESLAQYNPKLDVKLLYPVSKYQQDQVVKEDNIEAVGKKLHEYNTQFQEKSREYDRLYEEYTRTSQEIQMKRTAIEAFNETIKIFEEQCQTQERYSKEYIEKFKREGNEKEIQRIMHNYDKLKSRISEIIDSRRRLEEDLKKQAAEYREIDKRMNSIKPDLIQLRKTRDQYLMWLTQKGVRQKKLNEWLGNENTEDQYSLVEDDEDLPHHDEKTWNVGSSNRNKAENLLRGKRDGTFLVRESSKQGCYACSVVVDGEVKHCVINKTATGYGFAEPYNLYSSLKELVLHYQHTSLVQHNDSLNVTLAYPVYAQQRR

Row | SMILES | IC50 (PI3K-α) [nM] | IC50 ([1]; MDA-MB-361, 72 h) [nM] | IC50 (PI3K-γ) [nM] | IC50 [2] [nM] | IC50 (Human mTOR (FLAG-TOR)) | IC50 [1, 3] [nM] | IC50 ([2]; PC3-mm2 cells) [nM] | IC50 (PI3K-α; listed as 733) [nM] | IC50 (PI3K-γ; listed as 733) [nM] | IC50 ([1]; 72 h, MDA-MB-361 cells) [nM] | IC50 (PI3K-γ; listed as 673) [nM] | IC50 (PI3K-α; listed as 706) [nM]
1 | CC(C)Cc1nc(-c2ccc(NC(=O)Nc3ccc(C(=O)N4CCN(C)CC4)cc3)cc2)nc(N2CCOCC2)n1 [Example 322, 1-{4-[(4-methylpiperazin-1-yl)carbonyl]phenyl}-3-{4-[4-(2-methylpropyl)-6-morpholin-4-yl-1,3,5-triazin-2-yl]phenyl}urea] | 2.4 | 13 | 30 | 86 | 6 nM | – | – | – | – | – | – | –
2 | CCCCc1nc(-c2ccc(NC(=O)Nc3ccc(C(=O)O)cc3)cc2)nc(N2CCOCC2)n1 [Example 184, 4-({[4-(4-butyl-6-morpholin-4-yl-1,3,5-triazin-2-yl)phenyl]carbamoyl}amino)benzoic acid] | 30 | 1250 | 143 | 2090 | 4 nM | – | – | – | – | – | – | –
3 | O=C(Nc1ccc(C(=O)N2CCC(N3CCOCC3)CC2)cc1)Nc1ccc(-c2nc(N3CCOCC3)nc(N3C4CCC3COC4)n2)cc1 [Example 757, 1-{4-[4-morpholin-4-yl-6-(3-oxa-8-azabicyclo[3.2.1]oct-8-yl)-1,3,5-triazin-2-yl]phenyl}-3-{4-[(4-morpholin-4-ylpiperidin-1-yl)carbonyl]phenyl}urea] | 5.5 | – | 37.5 | – | 0.28 nM | < 3 | 6 | – | – | – | – | –
4 | Cc1ccc(NC(=O)Nc2ccc(-c3nc(NC4CNC4)nc(N4CCOCC4)n3)cc2)cc1 [Example 20, 1-{4-[4-(azetidin-3-ylamino)-6-morpholin-4-yl-1,3,5-triazin-2-yl]phenyl}-3-(4-methylphenyl)urea] | 41 | > 10000 | 258 | > 10000 | 30.5 nM | – | – | – | – | – | – | –
5 | O=C(Nc1ccncc1)Nc1ccc(-c2nc(CCCN3CCCC3)nc(N3CCOCC3)n2)cc1 [Example 276, 1-{4-[4-morpholin-4-yl-6-(3-pyrrolidin-1-ylpropyl)-1,3,5-triazin-2-yl]phenyl}-3-pyridin-4-ylurea] | 34 | 1350 | 597 | 1650 | 60 nM and 75.5 nM | – | 1650 | 31.5 | 412 | – | – | –
6 | O=C(Nc1ccc(-c2nc(NC3CNC3)nc(N3CCOCC3)n2)cc1)Nc1cccnc1 [Example 18, 1-{4-[4-(azetidin-3-ylamino)-6-morpholin-4-yl-1,3,5-triazin-2-yl]phenyl}-3-pyridin-3-ylurea] | 9 | 2660 | 71 | 7100 | 36 nM | – | – | – | – | – | – | –
7 | O=C(Nc1ccncc1)Nc1ccc(-c2nc(N3CCOCC3)nc(N3C[C@@H]4C[C@H]3CO4)n2)cc1 [Example 189, 1-(4-{4-morpholin-4-yl-6-[(1S,4S)-2-oxa-5-azabicyclo[2.2.1]hept-5-yl]-1,3,5-triazin-2-yl}phenyl)-3-pyridin-4-ylurea] | 19 | 84 | 203 | 99 | 28 nM | – | – | – | – | – | – | –
8 | O=C(Nc1ccc(C(=O)N2CCOCC2)cc1)Nc1ccc(-c2nc(N3CCOCC3)nc(N3CCOCC3)n2)cc1 [Example 152, 1-[4-(4,6-dimorpholin-4-yl-1,3,5-triazin-2-yl)phenyl]-3-[4-(morpholin-4-ylcarbonyl)phenyl]urea] | 2 | 9 | 5 | 14 | 2 nM | – | – | – | – | – | – | –
9 | CN(C)C1CCN(C(=O)c2ccc(NC(=O)Nc3ccc(-c4nc(N5CCCCC5)nc(N5CCOCC5)n4)cc3)cc2)CC1 [Example 598, 1-(4-{[4-(dimethylamino)piperidin-1-yl]carbonyl}phenyl)-3-[4-(4-morpholin-4-yl-6-piperidin-1-yl-1,3,5-triazin-2-yl)phenyl]urea] | 5.5 | – | 40 | – | 10 nM | 22 | 214 | – | – | – | – | –
10 | CCCCN1CCN(C(=O)c2ccc(NC(=O)Nc3ccc(-c4nc(N5CCOC[C@H]5C)nc(N5CCOC[C@@H]5C)n4)cc3)cc2)CC1 [Example 627, 1-{4-[(4-butylpiperazin-1-yl)carbonyl]phenyl}-3-(4-{4-[(3R)-3-methylmorpholin-4-yl]-6-[(3S)-3-methylmorpholin-4-yl]-1,3,5-triazin-2-yl}phenyl)urea] | 18.5 | – | 102 | – | 2 nM | – | 55 | – | – | 16 | – | –
11 | C[C@@H]1COCCN1c1nc(-c2ccc(NC(=O)Nc3ccc(C(=O)N4CCN(C)CC4)cc3)cc2)nc(N2CCOC[C@@H]2C)n1 [Example 623, 1-(4-{4-[(3R)-3-methylmorpholin-4-yl]-6-[(3S)-3-methylmorpholin-4-yl]-1,3,5-triazin-2-yl}phenyl)-3-{4-[(4-methylpiperazin-1-yl)carbonyl]phenyl}urea] | 12.5 | – | 104 | – | 1 nM | – | 32 | – | – | 6 | – | –
12 | O=C(Nc1ccc(CO)cc1)Nc1ccc(-c2nc(N3CCOCC3)nc(N3C4CCC3COC4)n2)cc1 [Example 38, 1-[4-(hydroxymethyl)phenyl]-3-{4-[4-morpholin-4-yl-6-(3-oxa-8-azabicyclo[3.2.1]oct-8-yl)-1,3,5-triazin-2-yl]phenyl}urea] | 7 | 15 | 91 | 28 | 0.28 nM and 0.43 nM | – | 28 | – | – | – | 98.7 | –
13 | CC(C)c1nc(-c2ccc(NC(=O)Nc3ccc(C(=O)Nc4cccnc4)cc3)cc2)nc(N2CCOCC2)n1 [Example 310, 4-[({4-[4-(1-methylethyl)-6-morpholin-4-yl-1,3,5-triazin-2-yl]phenyl}carbamoyl)amino]-N-pyridin-3-ylbenzamide] | 14 | 44 | 82 | 117 | 5.9 nM | – | – | – | – | – | – | –
14 | O=C(Nc1ccc(O)cc1)Nc1ccc(-c2nc(N3CCOCC3)nc(N3CCOCC3)n2)cc1 [Example 54, 1-[4-(4,6-dimorpholin-4-yl-1,3,5-triazin-2-yl)phenyl]-3-(4-hydroxyphenyl)urea] | 10 | 133 | 88 | 214 | 4.75 nM | – | – | – | – | – | – | –
15 | CN1CCN(C(=O)c2ccc(NC(=O)Nc3ccc(-c4nc(N5CCOCC5)nc(N5C6COCC5COC6)n4)cc3)cc2)CC1 [Example 769, 1-{4-[4-(3,7-dioxa-9-azabicyclo[3.3.1]non-9-yl)-6-morpholin-4-yl-1,3,5-triazin-2-yl]phenyl}-3-{4-[(4-methylpiperazin-1-yl)carbonyl]phenyl}urea] | 2.1 | – | 17.5 | – | 0.23 nM | 6 | 14 | – | – | – | – | –
16 | Oc1cccc(-c2nc(N3CCOCC3)nc(N3C4CCC3COC4)n2)c1 [Example 683, 3-[4-morpholin-4-yl-6-(3-oxa-8-azabicyclo[3.2.1]oct-8-yl)-1,3,5-triazin-2-yl]phenol] | 121 | – | 1330 | – | 25 nM | – | 584 | – | – | 673 | – | –
17 | O=C(Nc1ccncc1)Nc1ccc(-c2nc(N3CCOCC3)nc(N3C4CCCC3COC4)n2)cc1 [Example 791, 1-{4-[4-morpholin-4-yl-6-(3-oxa-9-azabicyclo[3.3.1]non-9-yl)-1,3,5-triazin-2-yl]phenyl}-3-pyridin-4-ylurea] | 12.5 | – | 64.5 | – | 0.68 nM | – | 42 | – | – | 11 | – | –
18 | O=C(Nc1ccc(-c2nc(OC3CCOCC3)nc(N3CCOCC3)n2)cc1)Nc1cccnc1 [Example 61, 1-{4-[4-morpholin-4-yl-6-(tetrahydro-2H-pyran-4-yloxy)-1,3,5-triazin-2-yl]phenyl}-3-pyridin-3-ylurea] | 9 | 48 | 32 | 23 | 0.76 nM | – | – | – | – | – | – | –
19 | CN(C)CCN(C)C(=O)c1ccc(NC(=O)Nc2ccc(-c3nc(-c4cccs4)nc(N4CCOCC4)n3)cc2)cc1 [Example 562, N-[2-(dimethylamino)ethyl]-N-methyl-4-[({4-[4-morpholin-4-yl-6-(2-thienyl)-1,3,5-triazin-2-yl]phenyl}carbamoyl)amino]benzamide] | 1 | – | 10.5 | – | 4 nM | – | 93 | – | – | 3 | – | –
20 | CN(C)C1CCN(C(=O)c2ccc(NC(=O)Nc3ccc(-c4nc(NS(=O)(=O)c5ccccc5)nc(N5CCOCC5)n4)cc3)cc2)CC1 [Example 786, N-[4-(4-{[(4-{[4-(dimethylamino)piperidin-1-yl]carbonyl}phenyl)carbamoyl]amino}phenyl)-6-morpholin-4-yl-1,3,5-triazin-2-yl]benzenesulfonamide] | 30.5 | – | 129 | – | 89 nM | > 1000 | > 1000 | – | – | – | – | –
21 | O=C(Nc1ccc(-c2nc(N3CCOCC3)nc(N3CCC4(CC3)OCCO4)n2)cc1)Nc1cccnc1 [Example 131, 1-{4-[4-(1,4-dioxa-8-azaspiro[4.5]dec-8-yl)-6-morpholin-4-yl-1,3,5-triazin-2-yl]phenyl}-3-pyridin-3-ylurea] | 25 | 696 | 336 | 839 | 14.5 nM | – | 839 | – | – | – | – | 25.5

— US20090304692A1, “TRIAZINE COMPOUNDS AS PI3 KINASE AND MTOR INHIBITORS” (Wyeth, priority 2008, published 2009)
